Literature values, collected in patent US10835570B2, “Dietary supplement” (priority 2016, dated 2020).

Tested on: receptors ERb and ERa
Conditions: oestrogen-like affinity, ERb versus ERa

affinity greater for receptors ERb than for receptors ERa: 20 times
Structure (SMILES): O=c1c(-c2ccc(O)cc2)coc2cc(O)cc(O)c12 [genistein]
